15 molecules from ChEMBL document CHEMBL4390710, “Synthesis and biological evaluation of novel 4,7-dihydroxycoumarin derivatives as anticancer agents” (Bioorg Med Chem Lett, 2019) can be followed below.

In one assay the test system is HeLa. Nature of the assay: Cytotoxicity against human HeLa cells measured after 24 hrs by MTT assay. Format: functional, cell-based. More on the design: unit not given here. On the technique in general: Formazan colour is commonly taken as a measure of viable cells.
The subject of a further assay is A549. Nature of the assay: Cytotoxicity against human A549 cells measured after 24 hrs by MTT assay. Format: functional, cell-based.
In a further assay the test system is NRK-49F. Put plainly: Cytotoxicity against rat NRK-49F cells measured after 24 hrs by MTT assay. It counts as functional, cell-based.
In assay [1] the test system is MCF7. Nature of the assay: Cytotoxicity against human MCF7 cells measured after 24 hrs by MTT assay. It counts as functional, cell-based.
The subject of a further assay is SK-N-SH. Nature of the assay: Cytotoxicity against human SK-N-SH cells measured after 24 hrs by MTT assay. Format: functional, cell-based.
Assay [2] deals with MCF7. Put plainly: Cell cycle arrest in human MCF7 cells assessed as accumulation at G1-phase at 4 uM measured after 24 hrs by propidium iodide staining based flow cytometry (reference value: 57%). Format: functional. On the technique in general: A flow cytometer gives signals particle by particle.
The subject of assay [3] is MCF7. Nature of the assay: Cell cycle arrest in human MCF7 cells assessed as accumulation at G2/M-phase at 4 uM measured after 24 hrs by propidium iodide staining based flow cytometry (reference value: 13.8%). It counts as functional.
A short description of assay [4]: Inhibition of goat brain tubulin polymerization. More on the design: species or system Capra hircus.
For assay [5], the system named is MCF7. Nature of the assay: Cell cycle arrest in human MCF7 cells assessed as accumulation at subG0-phase at 4 uM measured after 24 hrs by propidium iodide staining based flow cytometry (reference value: 13.9%). Format: functional.
Assay [6] deals with MCF7. Put plainly: Cell cycle arrest in human MCF7 cells assessed as accumulation at S-phase at 4 uM measured after 24 hrs by propidium iodide staining based flow cytometry (reference value: 14.9%). It counts as functional.
Assay [7] concerns MCF7. Put plainly: Cell cycle arrest in human MCF7 cells assessed as accumulation at G2/M-phase at 4 uM measured after 24 hrs by propidium iodide staining based flow cytometry relative to control. Format: functional.

For `COc1ccc(/C=C(\C#N)C(=O)N/N=C(\C)c2c(O)c3ccc(O)cc3oc2=O)cc1OC`, the IC50 in the assay with HeLa was determined as 13.52; in the assay with A549 it was 14.32 µmol; in the assay on NRK-49F, 45.28 µmol; in the assay on MCF7 [1] it was 14.35 µmol; in the assay with SK-N-SH, 21.53 µmol.

In the case of `C/C(=N\NC(=O)/C(C#N)=C/c1ccc(Br)cc1)c1c(O)c2ccc(O)cc2oc1=O`, the IC50 turned out to be 10.56 with HeLa; 11.43 µmol with A549; 49.64 µmol in the assay with NRK-49F; 9.85 µmol in the assay with MCF7 [1]; 12.05 µmol in the assay with SK-N-SH.

Consider `C/C(=N\NC(=O)/C(C#N)=C/c1ccc(N(C)C)cc1)c1c(O)c2ccc(O)cc2oc1=O`, for which the Activity in the assay with MCF7 [2] is listed as 22.7 - 22.8%; in the assay on MCF7 [3], 45.3%; with MCF7 [5] it was 8.5 - 10.6%; with MCF7 [6], 22.6%. The IC50 in the assay on HeLa is 5.14; in the assay with A549 it was 4.31 µmol; in the assay with NRK-49F, 53.41 µmol; in the assay on MCF7 [1], 3.42 µmol; in assay [4] it was 6.19 µM; with SK-N-SH it was 6.09 µmol. For the same molecule, the “fold change (FC)” value with MCF7 [7] came out at 4.

As to `COc1cc(/C=C(\C#N)C(=O)N/N=C(\C)c2c(O)c3ccc(O)cc3oc2=O)cc(OC)c1OC`, the IC50 was 18.46 with HeLa; 15.32 µmol with A549; 55.34 µmol in the assay on NRK-49F; 11.34 µmol in the assay on MCF7 [1]; 14.61 µmol with SK-N-SH.

With `C/C(=N\NC(=O)/C(C#N)=C/c1ccccc1Cl)c1c(O)c2ccc(O)cc2oc1=O`, the IC50 with HeLa turned out to be 11.78; in the assay on A549, 14.23 µmol; in the assay on NRK-49F, 55.89 µmol; in the assay with MCF7 [1], 8.88 µmol; with SK-N-SH it was 14.02 µmol.

With `C/C(=N\NC(=O)/C(C#N)=C/c1ccccc1[N+](=O)[O-])c1c(O)c2ccc(O)cc2oc1=O`, the IC50 with HeLa was determined as 10.31; in the assay with A549, 11.35 µmol; with NRK-49F, 68.59 µmol; in the assay on MCF7 [1], 9.18 µmol; with SK-N-SH, 12.26 µmol.

With `C/C(=N\NC(=O)/C(C#N)=C/c1ccc([N+](=O)[O-])cc1)c1c(O)c2ccc(O)cc2oc1=O`, the IC50 with HeLa stood at 8.36; with A549 it was 9.64 µmol; in the assay on NRK-49F, 43.22 µmol; in the assay on MCF7 [1], 8.2 µmol; in the assay on SK-N-SH, 10.26 µmol.

`C/C(=N\NC(=O)/C(C#N)=C/c1cccc([N+](=O)[O-])c1)c1c(O)c2ccc(O)cc2oc1=O`: the IC50 with HeLa turned out to be 24.64; in the assay on A549, 21.9 µmol; with NRK-49F, 46.53 µmol; in the assay with MCF7 [1], 16.35 µmol; with SK-N-SH, 28.26 µmol.

With `C/C(=N\NC(=O)/C(C#N)=C/c1cccc(Br)c1)c1c(O)c2ccc(O)cc2oc1=O`, the IC50 in the assay with HeLa worked out at 24.28; with A549, 22.15 µmol; in the assay with NRK-49F, 59.39 µmol; with MCF7 [1], 19.64 µmol; with SK-N-SH, 31.28 µmol.

Consider `C/C(=N\NC(=O)/C(C#N)=C/c1ccc(O)cc1)c1c(O)c2ccc(O)cc2oc1=O`, for which the IC50 with HeLa amounted to 6.02; in the assay on A549, 6.23 µmol; in the assay on NRK-49F it was 61.31 µmol; in the assay with MCF7 [1] it was 7.32 µmol; in the assay on SK-N-SH, 8.12 µmol.

Regarding `COc1cc(/C=C(\C#N)C(=O)N/N=C(\C)c2c(O)c3ccc(O)cc3oc2=O)ccc1O`, the IC50 in the assay with HeLa came out at 10.46; with A549 it was 12.63 µmol; with NRK-49F it was 55.42 µmol; with MCF7 [1], 13.65 µmol; in the assay with SK-N-SH it was 14.35 µmol.

Take `COc1ccc(/C=C(\C#N)C(=O)N/N=C(\C)c2c(O)c3ccc(O)cc3oc2=O)cc1`: the IC50 in the assay on HeLa was 7.85; in the assay on A549, 8.15 µmol; with NRK-49F, 96.1 µmol; in the assay on MCF7 [1], 8.94 µmol; in the assay on SK-N-SH, 9.46 µmol.

Take `C/C(=N\NC(=O)/C(C#N)=C/c1ccccc1)c1c(O)c2ccc(O)cc2oc1=O`: the IC50 in the assay with HeLa stood at 15.75; with A549, 14.82 µmol; with NRK-49F it was 55.45 µmol; in the assay on MCF7 [1], 19.22 µmol; with SK-N-SH it was 13.52 µmol.

Turning to `COc1cccc2c1C(=O)c1c(O)c3c(c(O)c1C2=O)C[C@@](O)(C(=O)CO)C[C@@H]3O[C@H]1C[C@H](N)[C@H](O)[C@H](C)O1` [DOXORUBICIN], the IC50 is 6.22 µmol in the assay with A549, 24.22 µmol in the assay with NRK-49F, 9.86 µmol in the assay on MCF7 [1] and 6.42 µmol in the assay with SK-N-SH.

As for `COC(=O)Nc1nc2cc(C(=O)c3cccs3)ccc2[nH]1` [NOCODAZOLE], the Activity is recorded as 21.6% with MCF7 [2], 39.3% in the assay with MCF7 [3], 16.4 - 16.8% in the assay with MCF7 [5] and 22% in the assay with MCF7 [6].
